Molecular target: Leukotriene B4 receptor 1 (Homo sapiens, UniProt Q15722)
Assay: IP-One assay (LTB4R), antagonist mode at up to 50 µM ( vs. 300 nM LTB4); call rule not given here
Type: functional
Parameters: compound concentration < 50 uM

Leukotriene B4 receptor 1, sequence (Q15722 whole entry): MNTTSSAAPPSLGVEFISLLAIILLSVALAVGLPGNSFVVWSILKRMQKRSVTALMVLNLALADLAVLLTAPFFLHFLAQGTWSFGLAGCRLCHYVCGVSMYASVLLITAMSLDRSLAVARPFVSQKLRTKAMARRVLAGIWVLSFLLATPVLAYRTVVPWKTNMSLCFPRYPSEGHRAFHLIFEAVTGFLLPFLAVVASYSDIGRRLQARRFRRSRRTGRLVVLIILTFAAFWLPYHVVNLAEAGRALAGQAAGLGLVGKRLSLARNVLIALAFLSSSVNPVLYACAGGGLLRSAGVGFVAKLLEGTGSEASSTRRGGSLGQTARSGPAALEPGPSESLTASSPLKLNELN

CCCCC(=O)N1CC2(CCN(c3ccccc3-c3nnn[nH]3)CC2)C1
EC50: > 50 µM (not active)
